Assay [1] addresses T1, human MT1 (hMT1) (Homo sapiens, UniProt P48039). The experiment in a line: [35S]-GTPγS binding, agonist mode GTPγS. The assay is classed as biochemical. In general terms: GTPγS is a poorly hydrolysed GTP analogue; its binding reports G protein activation.
Assay [2] concerns the target T2, MT2 (Homo sapiens, UniProt P49286).
T2 sequence (P49286 1-362): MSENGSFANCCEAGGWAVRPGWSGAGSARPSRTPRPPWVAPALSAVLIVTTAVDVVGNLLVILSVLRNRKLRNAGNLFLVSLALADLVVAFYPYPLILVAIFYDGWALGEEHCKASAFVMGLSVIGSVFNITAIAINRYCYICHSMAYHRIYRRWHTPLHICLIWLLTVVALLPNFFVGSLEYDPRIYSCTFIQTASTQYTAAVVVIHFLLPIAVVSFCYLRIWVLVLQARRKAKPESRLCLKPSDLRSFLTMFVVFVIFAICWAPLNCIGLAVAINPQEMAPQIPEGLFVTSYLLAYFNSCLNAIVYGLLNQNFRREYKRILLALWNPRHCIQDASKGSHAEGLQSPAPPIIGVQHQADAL
The experiment in a line: Overall functionality from the signaling pathway panel.

In assay [3] the target is T2, MT2. As to the kind of experiment: HTRF cAMP assay, agonist mode cAMP. Particulars: for Emax, cAMP (+): hMT2, inhibition of cAMP production, normalization vs melatonin. The assay is classed as cell-based. On the technique in general: TR-FRET usually uses a lanthanide donor and a delayed reading to cut background.
Assay [4] addresses T2, MT2. As to the kind of experiment: HTRF cAMP assay, antagonist mode cAMP. It counts as cell-based.
Assay [5] addresses T3, MT1 (Homo sapiens, UniProt P48039). The experiment in a line: Overall functionality from the signaling pathway panel.
Assay [6] deals with T4, human MT2 (hMT2) (Homo sapiens, UniProt P49286).
T4 sequence (P49286 1-362): T2 sequence (P49286 1-362)
As to the kind of experiment: 2-[125I]-iodomelatonin competition binding, CHO-K1 membranes.

Assay [7] has as its target T1, human MT1 (hMT1). The assay is described as above.
For assay [8], the target named is T2, MT2. As to the kind of experiment: β-arrestin recruitment, PathHunter CHO-K1 cells. It counts as cell-based. On the technique in general: Recruitment of arrestin is a read-out of receptor activation apart from second messengers.
The target in assay [9] is T2, MT2. The experiment in a line: Receptor internalization, U2O-S cells. It counts as cell-based. Conditions: for receptor internalization: MT2.
Assay [10] has as its target T2, MT2. As to the kind of experiment: Cellular dielectric spectroscopy. The assay is classed as cell-based. Particulars: MT2.
Assay [11] deals with T3, MT1. The experiment in a line: β-arrestin recruitment, PathHunter CHO-K1 cells. The assay is classed as cell-based.
Assay [12] has as its target T1, human MT1 (hMT1). The experiment in a line: [35S]-GTPγS binding, antagonist mode GTPγS. It counts as biochemical.
The target of assay [13] is T3, MT1. As to the kind of experiment: Receptor internalization, DLD-1 cells. It counts as cell-based.
Assay [14] concerns the target T4, human MT2 (hMT2). As to the kind of experiment: [35S]-GTPγS binding, antagonist mode GTPγS. It counts as biochemical.
For assay [15], the target named is T4, human MT2 (hMT2). The experiment in a line: [35S]-GTPγS binding, agonist mode GTPγS. The assay is classed as biochemical.
Assay [16] concerns the target T3, MT1. As to the kind of experiment: HTRF cAMP assay, agonist mode cAMP. The assay is classed as cell-based. Particulars: inhibition of cAMP production, normalization vs melatonin.
Assay [17] deals with T3, MT1. The experiment in a line: Cellular dielectric spectroscopy. The assay is classed as cell-based. Particulars: MT1.
Where [18] appears, read: MT1 Affinity (pKi), against 2-[125I]iodomelatonin.

The term EC50 denotes the midpoint of the concentration-response curve. By Ki is commonly meant the dissociation constant of the complex between target and ligand, obtained from inhibition or displacement. In general, Emax refers to the maximal effect, on the per cent scale that the assay sets.

Values joined by “and” are separate entries in the source; they are usually repeats but may differ in a detail not shown here. Equal values may be shown once. Read-outs that look alike come from different tables or passages of the source. Where only a bound is given, the exact number is not on record here.

T1 sequence (P48039 whole entry): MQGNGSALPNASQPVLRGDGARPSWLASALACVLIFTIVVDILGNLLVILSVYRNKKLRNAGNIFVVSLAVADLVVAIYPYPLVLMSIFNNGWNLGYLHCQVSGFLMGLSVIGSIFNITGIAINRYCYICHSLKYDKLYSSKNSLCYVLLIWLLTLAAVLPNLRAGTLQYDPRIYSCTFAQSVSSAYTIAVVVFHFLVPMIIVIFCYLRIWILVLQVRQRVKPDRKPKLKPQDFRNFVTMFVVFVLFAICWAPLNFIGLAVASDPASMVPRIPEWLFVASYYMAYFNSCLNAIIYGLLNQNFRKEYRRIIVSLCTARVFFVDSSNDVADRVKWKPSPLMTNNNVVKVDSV
T3 sequence (P48039 whole entry): as above

On to `CCC(=O)NC1Cc2ccccc2C(c2ccccc2)C1` (centres unmarked) [4P‐PDOT, 4‐phenyl‐2‐propionamidotetraline, reference compound], for which the “induction of GTPγS binding” value in assay [1] was “does not induce GTPγS binding”. For the same molecule, the “MT2 Our data (functionality)” value in [2] was “partial ago”. For the same molecule, the “Emax, cAMP (+)” value in assay [3] was ~90% and 100%. The molecule also had an EC50 in assay [3] (pEC50, cAMP production inhibition, MT2, text) of 2 nM. The “antagonism in cAMP assay” value in assay [4] (MT2) was “completely inactive”. The “MT1 Our data (functionality)” value in assay [5] was “partial ago”. For the same molecule, the Ki is 1.07 nM in [6]; 141 nM in assay [7] (setting [18]); roughly 100 nM in [7] (affinity for MT1, order of magnitude given in text).

On to `COc1ccc2cccc(CCNC(C)=O)c2c1` [Agomelatine, N‐[2‐(7‐methoxynaphthalen‐1‐yl)ethyl]acetamide, reference compound], for which the “MT2 Our data (functionality)” value in [2] was “ago”; in [2] (listed as S20098), “agonists”. The “MT1 Our data (functionality)” value in [5] is on record as “ago”; in [5] (listed as S20098), “agonists”.

Regarding `CC(=O)NCCc1c(Cc2ccccc2)[nH]c2ccccc12` [Luzindole, N‐acetyl‐2‐benzyltryptamine, reference compound], the “MT2 Our data (functionality)” value in assay [2] is “partial ago”. For the same molecule, the “Emax, cAMP (+)” value in assay [3] is given as 70%. The maximal effect (Emax) in assay [4] (read-out: Emax, cAMP (−)) is 55%. The “β-arrestin recruitment” value in assay [8] is “does not recruit”. In addition, the “MT1 Our data (functionality)” value in [5] is “antago”. Further, in assay [9], the EC50 is roughly 10 nM and the “receptor internalization” value is “induces the internalization”. Also, the affinity in assay [7] (setting [18]), expressed as Ki, was 257 nM.

For `COc1ccc2[nH]cc(CCNC(C)=O)c2c1` [Melatonin, N‐acetyl‐5‐methoxytryptamine, reference compound], the “MT1 Our data (functionality)” value in [5] is on record as “ago”.

As for `O=C(NCCc1cccc2ccccc12)C1CCC1` [S20928, (N‐[2‐(1‐naphthyl)ethyl]cyclobutanecarboxamide)], in assay [10], the “concentration of maximal effect (CellKey)” value is listed as roughly 100 nmol/L. Further, the entries for the “Emax, cAMP (+)” value in [3] and in assay [16] were 50% and “less than 25%”, respectively. Further, the “β-arrestin recruitment” value in assay [11] is “capacity to recruit”. Also, the results for the “inhibition of melatonin-induced GTPγS binding” value in assay [12] and in [14] were “fully inhibits” and “slightly inhibits”, respectively. Moreover, the “receptor internalization” value in assay [13] and in assay [9] was “does not induce internalization” each time. In addition, the “induction of GTPγS binding” value in assay [15] is reported as “induces the binding of GTPγS”. Besides, the “cell shape shift, CellKey” value in [17] is “failed to elicit any significant shift in shape”. This molecule also showed a Ki in assay [7] (setting [18]) of 170 nM.

On to `COc1ccc2ncn(CCNC(C)=O)c2c1` [S21278, N‐[2‐(6‐methoxy‐benzimidazol‐1‐yl)ethyl]acetamide], for which the “MT2 Our data (functionality)” value in [2] was “agonists and ago”. Moreover, the “β-arrestin recruitment” value in assay [11] is reported as “complete recruitment”. Further, in [5], the “MT1 Our data (functionality)” value was “agonists”. Besides, the Ki in [6] and in assay [7] (setting [18]) was 603 nM each time. Moreover, the “receptor internalization” value in assay [9] is listed as “not enough to elicit internalization”.

Regarding `CCc1ccc2scc(CCNC(C)=O)c2c1` [S22153, N‐[2‐(5‐ethylbenzothiophen‐3‐yl)ethyl]acetamide], the “MT2 Our data (functionality)” value in [2] is recorded as “ago”. Also, the “MT1 Our data (functionality)” value in assay [5] is listed as “partial ago”. The Ki in assay [6] is 7.94 nM; in assay [7] (setting [18]), 9.77 nM.

Consider `COc1cc2c(CCNC(C)=O)c(I)[nH]c2cc1[N+](=O)[O-]` [S27128, N‐[2‐(2‐iodo‐5‐methoxy‐6‐nitro‐1H‐indol‐3‐yl)ethyl]acetamide], for which the “MT2 Our data (functionality)” value in [2] is “agonists and ago”. The “receptor internalization” value in [13] and in assay [9] was “exhibited subsequent internalization” in each case. In addition, the “MT1 Our data (functionality)” value in assay [5] is “agonists and ago”. In addition, the Ki in assay [7] (setting [18]) was 1.2 nM.

On to `COCC(CNC(C)=O)c1cccc2ccc(OC)cc12` (centres unmarked) [S73893, N‐[3‐methoxy‐2‐(7methoxy‐ 1‐naphthyl)propyl]acetamide], for which the “MT1 Our data (functionality)” value in [5] is listed as “partial ago”. Also, the Ki is 7.76 nM in assay [6] and 4.37 nM in assay [7] (setting [18]).

As to `COc1ccc2cccc(C(CO)CNC(=O)CF)c2c1` (centres unmarked) [S75436, 2‐fluoro‐N‐[3‐hydroxy‐2‐(7‐methoxy‐1‐naphthyl)propyl]acetamide], the “MT2 Our data (functionality)” value in assay [2] was “agonists and ago”. In addition, the “MT1 Our data (functionality)” value in assay [5] was “agonists and ago”. In addition, the figures for the Ki in [6] and in assay [7] were 1.12 nM and 9.12 nM, respectively.

Turning to `COc1ccc2c(c1)C(CNC(N)=O)Cc1ccccc1C2` (centres unmarked) [S77840, 1‐[(8‐methoxy‐10,11‐dihydro‐5H‐dibenzo[a,d]‐[7]annulen‐10‐yl)methyl]urea], the “cell shape shift, CellKey” value in [10] was “failed to elicit any significant shift in shape”. Moreover, the “receptor internalization” value in assay [13] and in [9] was “lack of capacity to provoke internalization” each time.

For the molecule `COc1ccc2[nH]cc(CCNC(=O)CI)c2c1` [SD6, N‐[2‐(5‐methoxy‐1H‐indol‐3‐yl)ethyl] iodoacetamide], the “MT2 Our data (functionality)” value in assay [2] is “agonists and ago”. In addition, in assay [5], the “MT1 Our data (functionality)” value was “agonists and ago”.

`COc1cc2c(CCNC(C)=O)c[nH]c2cc1I` [SD1881, N‐[2‐(6‐iodo‐5‐methoxy‐1H‐indol‐3‐yl)ethyl]acetamide]: the “MT2 Our data (functionality)” value in [2] is “agonists and ago”. In assay [5], the “MT1 Our data (functionality)” value was “agonists and ago”. The results for the inhibitory constant (Ki) in assay [6] and in [7] (setting [18]) were 2.45 nM and 1.45 nM, respectively.

In the case of `COc1ccc2[nH]cc(CCNC(C)=O)c2c1I` [SD1882, N‐[2‐(4‐iodo‐5‐methoxy‐1H‐indol‐3‐yl)ethyl] acetamide], in [2], the “MT2 Our data (functionality)” value was “ago”. Further, in assay [5], the “MT1 Our data (functionality)” value is given as “partial ago”. The Ki was 10.2 nM in assay [6] and 17.4 nM in [7] (setting [18]). Besides, the “concentration of maximal effect (CellKey)” value in assay [17] is roughly 100 nmol/L.

In the case of `COc1cc(I)c2[nH]cc(CCNC(C)=O)c2c1` [SD1918, N‐[2‐(7‐iodo‐5‐methoxy‐1H‐indol‐3‐yl)ethyl]acetamide], in assay [2], the “MT2 Our data (functionality)” value is reported as “ago”. Also, the “MT1 Our data (functionality)” value in assay [5] is listed as “partial ago”. The Ki is 47.9 nM in assay [6] and 45.7 nM in [7] (setting [18]).

On to “methoxyverapamil [D600, reference compound]”, for which the “β-arrestin recruitment” value in assay [11] and in assay [8] was “did not induce” each time. Further, the “receptor internalization” value in assay [13] and in [9] was “did not induce” each time. Besides, in [5], the “MT1 Our data (functionality)” value is recorded as “antago”. Besides, in assay [6] (against 2-[125I]iodomelatonin), the “MT2 Affinity (pKi)” value is less than 6. Besides, the “MT1 Affinity (pKi)” value in assay [7] (against 2-[125I]iodomelatonin) was 7 and 7.04.

Values taken from PMC6935685 (Pharmacology Research & Perspectives, 2019).
